The source of these data is ChEMBL document CHEMBL5120757, “Strategies Targeting Protein Tyrosine Phosphatase SHP2 for Cancer Therapy” (J Med Chem, 2022).

Experiment [1] deals with T1, Tyrosine-protein phosphatase non-receptor type 11 (Homo sapiens, UniProt Q06124).
T1 sequence (Q06124 whole entry): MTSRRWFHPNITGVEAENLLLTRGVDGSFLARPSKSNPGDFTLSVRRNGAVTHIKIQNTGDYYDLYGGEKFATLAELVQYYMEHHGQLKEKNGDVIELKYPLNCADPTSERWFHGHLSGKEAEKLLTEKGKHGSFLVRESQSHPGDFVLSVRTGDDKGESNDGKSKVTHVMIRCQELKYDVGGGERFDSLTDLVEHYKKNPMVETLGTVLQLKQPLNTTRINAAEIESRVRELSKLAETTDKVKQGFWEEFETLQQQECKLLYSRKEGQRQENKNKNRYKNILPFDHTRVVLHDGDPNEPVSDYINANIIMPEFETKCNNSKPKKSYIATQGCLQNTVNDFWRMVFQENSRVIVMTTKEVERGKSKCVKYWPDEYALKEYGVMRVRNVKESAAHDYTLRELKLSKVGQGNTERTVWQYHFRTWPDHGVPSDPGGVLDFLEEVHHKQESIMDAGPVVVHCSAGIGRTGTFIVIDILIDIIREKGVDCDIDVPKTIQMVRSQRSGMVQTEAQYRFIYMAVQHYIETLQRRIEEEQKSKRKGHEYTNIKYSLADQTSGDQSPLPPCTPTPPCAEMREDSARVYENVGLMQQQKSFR
Kind of experiment: Inhibition of SHP2 (unknown origin).

Experiment [2] addresses T1, Tyrosine-protein phosphatase non-receptor type 11. The experiment can be described thus: Degradation of wildtype SHP2 in human MV411 cells. It counts as cell-based. Particulars: mv4-11.
Experiment [3] addresses Tyrosine-protein phosphatase non-receptor type 11 (Homo sapiens, UniProt Q06124, F285S). The experiment can be described thus: Inhibition of SHP2 F285S mutant (unknown origin) using DiFMUP as substrate incubated for 1 hr followed by substrate addition measured after 30 mins by plate reader method.
The target in experiment [4] is T1, Tyrosine-protein phosphatase non-receptor type 11. Kind of experiment: Inhibition of wildtype SHP2 (unknown origin).

Chain of Tyrosine-protein phosphatase non-receptor type 11 (Homo sapiens, UniProt Q06124, F285S) (Q06124 2-593 F285S limits assumed): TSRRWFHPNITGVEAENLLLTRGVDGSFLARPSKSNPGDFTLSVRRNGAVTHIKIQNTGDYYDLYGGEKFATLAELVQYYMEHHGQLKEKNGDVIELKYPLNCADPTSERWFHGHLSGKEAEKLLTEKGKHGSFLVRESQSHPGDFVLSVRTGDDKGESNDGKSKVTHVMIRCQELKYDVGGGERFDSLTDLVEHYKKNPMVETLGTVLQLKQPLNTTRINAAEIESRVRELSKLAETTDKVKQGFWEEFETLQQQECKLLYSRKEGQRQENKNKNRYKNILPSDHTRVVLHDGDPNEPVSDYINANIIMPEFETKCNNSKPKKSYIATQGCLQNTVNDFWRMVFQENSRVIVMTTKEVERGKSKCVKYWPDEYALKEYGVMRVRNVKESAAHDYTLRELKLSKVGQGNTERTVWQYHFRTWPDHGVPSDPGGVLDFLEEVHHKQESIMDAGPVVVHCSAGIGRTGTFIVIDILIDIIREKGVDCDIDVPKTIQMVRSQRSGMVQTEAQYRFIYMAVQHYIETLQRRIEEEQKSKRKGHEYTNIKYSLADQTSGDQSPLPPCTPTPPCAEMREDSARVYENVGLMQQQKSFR

The term IC50 denotes the concentration at which inhibition is half-maximal. The low end stands for greater potency in that assay, the high end for weaker potency in that assay. Molecule `COC(=O)c1cc(NC2=NC(=O)/C(=C/c3ccc(C)cc3)S2)ccc1O` returned an IC50 in experiment [1] of 0.05 µM. Broadly, the DC50 is the concentration at which degradation of the target reaches its halfway point. Lower therefore signals a more potent degrader. Molecule `C[C@@H]1OCC2(CCN(c3cnc(Sc4cccc(NC(=O)CCC(=O)NCCCOCCOCCOCCCNc5cccc6c5C(=O)N(C5CCC(=O)NC5=O)C6=O)c4Cl)c(N)n3)CC2)[C@@H]1N` (some centres not stated) gave a DC50 in experiment [2] of 6 nM. In experiment [3], `Cc1nc(N2CCC3(CC2)CO[C@@H](C)[C@H]3N)cnc1-c1ccc(OCCOCCOCCCOCCCOCCCOCCCOCCOCCNCC(=O)COc2cccc3c2C(=O)N(C2CCC(=O)NC2=O)C3=O)c(Cl)c1Cl` (some centres not stated) had an IC50 of 22.5 nM. That is a double-digit nanomolar value. In the case of `C=C/C(=C/C(=O)C[C@H](C)C[C@@H](C)CC[C@H](O)[C@H](C)C(=O)C[C@@H](O)[C@H](C)[C@@H](C)OC(=O)C[C@@H](O)/C(C(=O)O)=C(\C)C(=O)O)CC`, the IC50 in experiment [1] came to 29 µM. With `CC1(NCc2cn(CCOCCOCCOCCOCCNc3cccc4c3C(=O)N(C3CCC(=O)NC3=O)C4=O)nn2)CCN(c2cnc(-c3cccc(Cl)c3Cl)c(N)n2)CC1` (configuration not stated), the midpoint of inhibition in experiment [4], the IC50, lay at 714 nM.

`NC(=O)c1cc[n+](CC2=C(C(=O)O)N3C(=O)[C@@H](NC(=O)[C@@H](c4ccccc4)S(=O)(=O)O)[C@@H]3SC2)cc1` registered an IC50 in experiment [1] of 16.8 µM.

Consider `O=C(O)c1cc(O)c(=O)c2c(O)c(O)ccc2c1` [7-DESHYDROXYPYROGALLIN-4-CARBOXYLIC ACID], for which inhibition in experiment [1] was half-maximal at 2.1 µM (IC50).
